This passage reports TGI and GI50 results from PubChem BioAssay (NCI).

Structures are written as SMILES.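 Briefly, cells in 96-well plates were exposed to five compound concentrations for 48 h, and endpoints were estimated by linear interpolation. The concentration for 50% growth inhibition is given as GI50. TGI denotes the concentration required for complete inhibition of growth.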

Among the test systems are SF-268 CNS; TK-10 renal; UACC-62 melanoma; HL-60(TB) leukemia; CCRF-CEM leukemia; COLO 205 colon; M14 melanoma; OVCAR-3 ovarian; SK-MEL-28 melanoma; HCC-2998 colon.
What all share (assay): NCI anticancer screen, dose series, 48 h

As to `O=c1c2cc(S(=O)(=O)O)ccc2nc(COc2ccc(Oc3ccc(Cl)cc3Cl)cc2)n1C(=S)Nc1ccc(Cl)cc1`, the TGI in the test with SF-268 CNS was 31.3 µM; with TK-10 renal, 40.4 µM; in the test on UACC-62 melanoma, 31 µM; in the test with HL-60(TB) leukemia, 4.07 µM; in the test on CCRF-CEM leukemia, more than 100 µM; with COLO 205 colon, 34.1 µM. Further, the results for the TGI with M14 melanoma and in the test with OVCAR-3 ovarian were 40.9 µM and 51.7 µM, respectively.
In the case of `c1c2c(cc3c1OCO3)-c1cc3ccc4c(c3c[n+]1CC2)OCO4`, the TGI is more than 12.5 µM with SF-268 CNS; more than 12.5 µM in the test with TK-10 renal; more than 12.5 µM in the test on SK-MEL-28 melanoma; more than 12.5 µM in the test on UACC-62 melanoma; more than 4.93 µM in the test with HL-60(TB) leukemia; more than 12.5 µM in the test on CCRF-CEM leukemia. In addition, the TGI in the test on COLO 205 colon is more than 10.8 µM; in the test on M14 melanoma, 5.9 µM; in the test on HCC-2998 colon, more than 12.5 µM; in the test on OVCAR-3 ovarian, more than 3.26 µM.
For the compound `CCSc1nc(-c2cccs2)nc2ccc(I)cc12`, the TGI in the test with SF-268 CNS, in the test with TK-10 renal, with SK-MEL-28 melanoma, with UACC-62 melanoma, with HL-60(TB) leukemia and in the test with CCRF-CEM leukemia was more than 100 µM throughout. For the same compound, the TGI in the test on COLO 205 colon, in the test with M14 melanoma, with HCC-2998 colon and in the test on OVCAR-3 ovarian was more than 100 µM throughout.
In the case of `CNC(C)Cc1ccccc1OC` (stereo not given), the TGI in the test on SF-268 CNS, in the test with TK-10 renal, in the test with SK-MEL-28 melanoma, with UACC-62 melanoma, in the test with HL-60(TB) leukemia and in the test on CCRF-CEM leukemia was more than 100 µM each time. Further, the TGI in the test on COLO 205 colon, with M14 melanoma, in the test on HCC-2998 colon and with OVCAR-3 ovarian was more than 100 µM in each case.
Take `CCCCCCCN(CCCCCCC)CC(O)c1cc2ccccc2c2cc(Br)ccc12` (stereo not given): the TGI in the test with SF-268 CNS is 54.8 µM; in the test on TK-10 renal it was more than 100 µM; in the test on SK-MEL-28 melanoma, more than 100 µM; in the test on UACC-62 melanoma, more than 100 µM; in the test on HL-60(TB) leukemia, more than 100 µM; in the test on CCRF-CEM leukemia it was more than 100 µM. The TGI in the test with COLO 205 colon is more than 100 µM; in the test with M14 melanoma, 76.7 µM; in the test with HCC-2998 colon, 45.7 µM; in the test with OVCAR-3 ovarian, 36.4 µM.
For the compound `NCCNCCNc1ccc(NCCNCCN)c2c1C(=O)c1c(O)ccc(O)c1C2=O`, the TGI in the test with SF-268 CNS, with TK-10 renal, with SK-MEL-28 melanoma, with UACC-62 melanoma, in the test on CCRF-CEM leukemia and with COLO 205 colon was more than 100 µM in each case. Besides, the TGI with M14 melanoma, with HCC-2998 colon and in the test with OVCAR-3 ovarian was more than 100 µM throughout.
Take `c1ccc([P+](c2ccccc2)(c2ccccc2)c2ccc(-c3ccc([P+](c4ccccc4)(c4ccccc4)c4ccccc4)cc3)cc2)cc1`: the TGI with SF-268 CNS, in the test with TK-10 renal, with SK-MEL-28 melanoma, in the test with UACC-62 melanoma, with HL-60(TB) leukemia and with CCRF-CEM leukemia was more than 100 µM each time. The TGI with COLO 205 colon was 31.5 µM; in the test on M14 melanoma it was more than 100 µM; in the test on HCC-2998 colon, more than 100 µM; in the test with OVCAR-3 ovarian, 52.4 µM.
For the compound `O=C1OC2(OC2c2ccc(Cl)cc2)c2ccccc21` (stereo not given), the TGI in the test with SF-268 CNS, in the test with TK-10 renal, with SK-MEL-28 melanoma, in the test with UACC-62 melanoma, with HL-60(TB) leukemia and with CCRF-CEM leukemia was more than 100 µM in each case. Also, the TGI in the test with COLO 205 colon, with M14 melanoma, in the test with HCC-2998 colon and in the test on OVCAR-3 ovarian was more than 100 µM in each case.
As for `Nc1nc(OCC2CCCCC2)c2[nH]cnc2n1`, the TGI in the test with SF-268 CNS was more than 100 µM; in the test on TK-10 renal, 30.5 µM; with SK-MEL-28 melanoma it was 99.2 µM; with UACC-62 melanoma, more than 74.6 µM; in the test on HL-60(TB) leukemia, 59.8 µM; in the test on CCRF-CEM leukemia, 43.6 µM. Further, the TGI in the test on COLO 205 colon is more than 56.9 µM; in the test with M14 melanoma, 57.8 µM; in the test on HCC-2998 colon, more than 67.8 µM; with OVCAR-3 ovarian, 35.7 µM.
For the compound `CCOP(=O)(OCC)C(Nc1cccc(F)c1)c1ccc(N(C)C)cc1` (stereo not given), the TGI in the test with SF-268 CNS, with TK-10 renal, in the test with SK-MEL-28 melanoma, in the test on UACC-62 melanoma, in the test on HL-60(TB) leukemia and in the test with CCRF-CEM leukemia was more than 100 µM each time. In addition, the TGI in the test on COLO 205 colon, with M14 melanoma, in the test on HCC-2998 colon and in the test with OVCAR-3 ovarian was more than 100 µM in each case.
Consider `CN(C)c1ccc(/C=c2/c3ccccc3n3c2cc(NC(=O)NCCC[N+](C)(C)C)[n+]3C)cc1`, for which the TGI is more than 100 µM in the test on SF-268 CNS; more than 100 µM in the test with TK-10 renal; more than 100 µM in the test on SK-MEL-28 melanoma; more than 100 µM in the test with UACC-62 melanoma; more than 100 µM with HL-60(TB) leukemia; 2.04 µM with CCRF-CEM leukemia. Also, the TGI in the test with COLO 205 colon, in the test on M14 melanoma and with OVCAR-3 ovarian was more than 100 µM each time.
Take `Cc1ccc([N+](=O)[O-])cc1S(=O)(=O)Nc1ccc(C2=NOC(c3ccccc3O)C2)cc1` (stereo not given): the TGI with SF-268 CNS is more than 100 µM; with TK-10 renal, more than 100 µM; with SK-MEL-28 melanoma, more than 100 µM; in the test on UACC-62 melanoma, 98.9 µM; in the test on HL-60(TB) leukemia, 21.4 µM; with CCRF-CEM leukemia it was more than 100 µM. In addition, the TGI turned out to be 19.8 µM with COLO 205 colon, 6.85 µM in the test on M14 melanoma, 24.8 µM with HCC-2998 colon and 24.1 µM with OVCAR-3 ovarian.
In the case of `CCc1ccc2c(c1)C(=O)c1c-2n(CCCN)c(=O)c2cc([N+](=O)[O-])ccc12`, the GI50 in the test with TK-10 renal was 1.2 µM; in the test with SK-MEL-28 melanoma it was 1.68 µM; in the test on UACC-62 melanoma it was 1.48 µM; in the test on COLO 205 colon, 1.21 µM; with M14 melanoma, 1.56 µM; in the test on HCC-2998 colon it was 0.376 µM. In the test on OVCAR-3 ovarian, the GI50 is 1.58 µM. Besides, the TGI with TK-10 renal was found to be 2.49 µM; with SK-MEL-28 melanoma, 3.2 µM; in the test with UACC-62 melanoma it was 2.83 µM; with COLO 205 colon, 2.51 µM; in the test on M14 melanoma it was 3.08 µM; with HCC-2998 colon it was 1.12 µM. Besides, the TGI with OVCAR-3 ovarian came out at 2.96 µM.
